Data taken from ChEMBL document CHEMBL5537161, “Structure-Guided Design, Synthesis, and Antivirulence Assessment of Covalent Staphylococcus aureus Sortase A Inhibitors” (J Med Chem, 2024).
Calls of active or inactive are those of the source. No cut-off for these calls is given here.

Key:
Cathepsin B [1] = molecular target: T1, Cathepsin B (Homo sapiens, UniProt P07858); test: Inhibition of cathepsin B (unknown origin) using Cbz-Phe-Arg-AMC as substrate preincubated for 5 mins followed by substrate addition by fluorescence based assay
[2] = Toxicity in Galleria mellonella larvae assessed as effect on survival at 60 mg/kg measured after 120 hrs; format: organism-based; details: in vivo
[3] = Inhibition of Streptococcus pyogenes Sortase A N81 deletion mutant transpeptidation using IsdA64-323 as substrate preincubated for 20 mins followed by substrate addition and measured after 1.5 hrs by SDS-PAGE analysis
[4] = Toxicity in Galleria mellonella assessed as change in color at 60 mg/kg measured after 120 hrs; format: organism-based; details: in vivo
Staphylococcus aureus [5] = test: Inhibition of Staphylococcus aureus USA300 biofilm formation incubated for 14 hrs by Crystal violet staining based assay; format: functional, organism-based; details: dose 12.5-100 µM
[6] = system: Sortase A (Staphylococcus aureus), Q9S446 [UNDEFINED MUTATION]; test: Irreversible inhibition of Staphylococcus aureus sortase A N24 deletion mutant preincubated with compound for 1 to 60 mins followed by substrate addition by FRET based assay; details: time 1-60 min, TDE = time-dependent effect
Cathepsin B [7] = molecular target: T1, Cathepsin B; test: Inhibition of cathepsin B (unknown origin) at 2 uM using Cbz-Phe-Arg-AMC as substrate preincubated for 5 mins followed by substrate addition by fluorescence based assay
Staphylococcus aureus [8] = test: Inhibition of Staphylococcus aureus Newman biofilm formation incubated for 14 hrs by Crystal violet staining based assay; format: functional, organism-based; details: dose 12.5-100 µM
Staphylococcus aureus [9] = test: Antibacterial activity against Staphylococcus aureus USA300 assessed as reduction in bacterial growth at 100 uM incubated for 14 hrs by microplate reader assay; format: functional, organism-based
[10] = system: Sortase A (Staphylococcus aureus), Q9S446 [UNDEFINED MUTATION]; test: Inhibition of Staphylococcus aureus Sortase A N24 deletion mutant transpeptidation assessed as thermal stabilization by measuring change in melting temperature at 80 uM incubated for 15 mins by Nano-DSF assay
Procathepsin L [11] = molecular target: T2, Procathepsin L (Homo sapiens, UniProt P07711); test: Inhibition of cathepsin L (unknown origin) using Cbz-Phe-Arg-AMC as substrate preincubated for 5 mins followed by substrate addition by fluorescence based assay
Target sequence in this assay (P07711 whole entry): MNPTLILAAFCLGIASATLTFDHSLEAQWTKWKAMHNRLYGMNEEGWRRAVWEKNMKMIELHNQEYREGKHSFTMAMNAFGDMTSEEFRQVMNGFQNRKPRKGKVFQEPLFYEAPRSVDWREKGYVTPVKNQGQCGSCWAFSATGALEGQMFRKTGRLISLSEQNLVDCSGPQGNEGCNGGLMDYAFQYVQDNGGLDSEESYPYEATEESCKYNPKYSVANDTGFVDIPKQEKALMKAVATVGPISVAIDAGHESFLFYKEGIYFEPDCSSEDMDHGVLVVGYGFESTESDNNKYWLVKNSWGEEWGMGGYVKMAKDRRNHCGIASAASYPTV

Staphylococcus aureus [12] = test: Antibacterial activity against Staphylococcus aureus Newman infected in Galleria mellonella assessed as reduction in melanization at 200 uM pretreated with compound followed by larvae infection measured after 24 hrs; format: functional, organism-based
Sortase A [13] = molecular target: T3, Sortase A (Staphylococcus aureus, UniProt Q9S446, N24DEL); test: Inhibition of Staphylococcus aureus sortase A N24 deletion mutant using Abz-LPATG-Dnp as substrate preincubated for 20 mins followed by substrate addition by FRET assay
Streptococcus pyogenes [14] = test: Covalent inhibition of Streptococcus pyogenes Sortase A N81 deletion mutant assessed as inactivation rate constant incubated for 60 mins
[15] = Covalent inhibition of Streptococcus pyogenes Sortase A N81 deletion mutant assessed as inactivation constant incubated for 60 mins
[16] = Toxicity in Galleria mellonella larvae assessed as change in appearance at 60 mg/kg measured after 120 hrs; format: organism-based; details: in vivo
[17] = system: Sortase A (Staphylococcus aureus), Q9S446 [UNDEFINED MUTATION]; test: Covalent inhibition of Staphylococcus aureus sortase A N24 deletion mutant assessed as inactivation rate constant incubated for 60 mins
Staphylococcus aureus [18] = test: Bactericidal activity against Staphylococcus aureus Newman assessed as reduction in bacterial growth incubated for 16 to 18 hrs; format: functional; details: time 16-18 hrs
Streptococcus pyogenes [19] = test: Covalent inhibition of Streptococcus pyogenes Sortase A N81 deletion mutant assessed as ratio of Kinact to Ki incubated for 60 mins
Staphylococcus aureus [20] = test: Antibacterial activity against Staphylococcus aureus USA300 infected in Galleria mellonella assessed as increase in larvae survival at 30 mg/kg measured every 24 hrs for 5 days; format: functional; details: time 5 day
Streptococcus pyogenes [21] = test: Inhibition of Streptococcus pyogenes Sortase A N81 deletion mutant transpeptidation assessed as thermal stabilization by measuring change in melting temperature at 80 uM incubated for 15 mins by Nano-DSF assay
[22] = system: Sortase A (Staphylococcus aureus), Q9S446 [UNDEFINED MUTATION]; test: Covalent inhibition of Staphylococcus aureus sortase A N24 deletion mutant assessed as ratio of Kinact to Ki incubated for 60 mins
Staphylococcus aureus [23] = test: Antibacterial activity against Staphylococcus aureus Newman assessed as reduction in bacterial growth at 100 uM incubated for 14 hrs by microplate reader assay; format: functional, organism-based
Staphylococcus aureus [24] = test: Antibacterial activity against Staphylococcus aureus Newman infected in Galleria mellonella assessed as increase in larvae survival at 30 mg/kg measured every 24 hrs for 5 days; format: functional; details: time 5 day
Sortase A [25] = molecular target: T3, Sortase A; test: Inhibition of Staphylococcus aureus Sortase A N24 deletion mutant transpeptidation using IsdA64-323 as substrate preincubated for 20 mins followed by substrate addition and measured after 1.5 hrs by SDS-PAGE analysis
Sortase A [26] = molecular target: T3, Sortase A; test: Covalent inhibition of Staphylococcus aureus sortase A N24 deletion mutant assessed as inactivation constant incubated for 60 mins
Streptococcus pyogenes [27] = test: Irreversible inhibition of Streptococcus pyogenes Sortase A N81 deletion mutant preincubated with compound for 1 to 60 mins followed by substrate addition by FRET based assay; details: time 1-60 min, TDE = time-dependent effect
Staphylococcus aureus [28] = test: Antivirulence activity against Staphylococcus aureus Newman assessed as reduction in abundance of Sbi at 6.25 to 100 uM by Western blotting analysis; format: functional, organism-based; details: dose 6.25-100 µM
Staphylococcus aureus [29] = test: Antivirulence activity against Staphylococcus aureus Newman assessed as reduction in abundance of anchored SpA in bacterial envelope by Western blotting analysis; format: functional, organism-based; details: dose 6.25-100 µM
Procathepsin L [30] = molecular target: T2, Procathepsin L; test: Inhibition of cathepsin L (unknown origin) at 2 uM using Cbz-Phe-Arg-AMC as substrate preincubated for 5 mins followed by substrate addition by fluorescence based assay
Target sequence in this assay (P07711 114-333 limits assumed): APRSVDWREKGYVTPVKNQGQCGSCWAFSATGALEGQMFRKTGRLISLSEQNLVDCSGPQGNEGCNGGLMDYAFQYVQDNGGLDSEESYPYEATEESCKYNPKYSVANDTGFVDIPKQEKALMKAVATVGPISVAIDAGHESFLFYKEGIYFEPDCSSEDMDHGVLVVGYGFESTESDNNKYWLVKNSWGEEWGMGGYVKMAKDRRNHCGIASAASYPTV

Staphylococcus aureus [31] = test: Antibacterial activity against Staphylococcus aureus USA300 infected in Galleria mellonella assessed as reduction in melanization at 200 uM pretreated with compound followed by larvae infection measured after 24 hrs; format: functional, organism-based

SMILES: O=C1NC(=O)C(=C/C=C/c2ccc(OCc3ccc(F)cc3)cc2)C(=O)N1
- IC50 (Cathepsin B [1]): 0.0361 µM
- Activity [2]: Non-Toxic
- IC50 [3]: 4.9 µM
- Activity [4]: Non-Toxic
- inhibition (Staphylococcus aureus [5]): Dose-Dependent Effect
- inhibition [6]: Tde
- inhibition (Cathepsin B [7]): Active
- inhibition (Staphylococcus aureus [8]): Dose-Dependent Effect
- Activity (Staphylococcus aureus [9]): inactive
- ΔTm [10]: 4.5 °C
- IC50 (Procathepsin L [11]): 0.0397 µM
- Activity (Staphylococcus aureus [12]): Active
- IC50 (Sortase A [13]): 0.6 µM
- Kinact (Streptococcus pyogenes [14]): 1170 min⁻¹
- Ki [15]: 5.4 µM
- Activity [16]: Non-Toxic
- Kinact [17]: 130 min⁻¹
- MIC (Staphylococcus aureus [18]): > 128 µg/mL
- Ratio (Streptococcus pyogenes [19]): 81.1 µM⁻¹ min⁻¹
- Activity (Staphylococcus aureus [20]): 40%
- ΔTm (Streptococcus pyogenes [21]): 9.3 °C
- Ratio [22]: 216 µM⁻¹ min⁻¹
- Activity (Staphylococcus aureus [23]): inactive
- Activity (Staphylococcus aureus [24]): 60%
- IC50 (Sortase A [25]): 5.2 µM
- Ki (Sortase A [26]): 1.6 µM
- inhibition (Streptococcus pyogenes [27]): Tde
- Activity (Staphylococcus aureus [28]): Active
- Activity (Staphylococcus aureus [29]): Active
- inhibition (Procathepsin L [30]): Active
- Activity (Staphylococcus aureus [31]): Active
